Where “and” joins values, the source holds several entries; their conditions need not be identical. Equal entries are not always repeated.
Assay: Whole-blood PK study (IV, IP and PO) in male CD-1 mice
Assay type: in vivo, mouse
Protocol: Nine male CD-1 mice (25–35 g) were obtained from Hilltop Labs. Duration of acclimation was at least two days. Animals were randomly assigned to the three dose groups (IV, PO, intraperitoneal (IP), N = 3 per group), healthy at the start of the trial, housed one per cage (conventional type with wood chip bedding material), identified by a cage label and maintained in a well-controlled temperature (20–24 C) and humidity (30%-70%) environment with 12 h light/dark cycles. Animals intended for IV dosing were fitted with a jugular vein cannula (JVC, procedure see rat plasma PK study above). The study was not blinded. Food was withheld from the animals for a minimum of 12 h prior to test article administration until 4 h post-dose. Water was offered ad libitum.
C16 was dosed in cassette together with two undisclosed compounds of similar chemical structure. The dose of each test article was 1 mg/kg (IV, JVC, 0.5 mg/mL) or 10 mg/kg (IP and PO gavage, 2 mg/mL). Two respective dosing solutions were prepared (protocol see above) containing 0.5 and 2 mg/mL of C16 (and equal concentrations of the other two test articles) in 20% DMSO / 10% (DMSO / Cremophor EL 1:1) / 70% H2O. Formulations were prepared one day prior to dosing and stored at 4 °C.
Blood samples were taken pre-dose and 5 (except for PO administration), 15, 30 min, 1, 2, 4, and 8 h after dosing. The samples were collected via the tail vein or by cardiac puncture (8 h time point). Blood (25 μL) was collected and pipetted into a tube with 25 μL heparinized water (1 μL of sodium heparin (1000 unit/ml) + 24 μL water) within 30 seconds of collection. The sample was pipetted up and down five times, immediately frozen on dry ice and stored at -60°C to -80°C until analyzed. No necropsy was performed.
Pharmacokinetic parameters were estimated by a non-compartmental model using WinNonlin (v5.2.1 or higher) software. The maximum plasma/blood concentrations (c0) after IV dosing were estimated by extrapolation of the first two time points back to t = 0. The maximum blood concentration (cmax) and the time to reach maximum blood drug concentration (tmax) after PO dosing were derived from the data. The area under the time-concentration curve (AUC) was calculated using the linear trapezoidal rule with calculation to the last quantifiable data point, and with extrapolation to infinity if applicable. Plasma/blood half-life (t1/2) was calculated from 0.693/slope of the terminal elimination phase. Mean residence time (MRT) was calculated by dividing the area under the moment curve (AUMC) by the AUC. Clearance (CL) was calculated from dose/AUC. Steady-state volume of distribution (Vss) was calculated from CL*MRT. Bioavailability was determined by dividing the individual dose-normalized PO AUC values by the respective average dose-normalized intravenous (IV) AUC value. Samples that were below the limit of quantification were not used in the calculation of averages, and were treated as zero for pharmacokinetic data analysis. […]
Sprague-Dawley rats at 10 mg/kg (in 100% DMSO). […]
c Bioavailability determined by dividing the individual dose normalized oral AUC last by the average dose normalized intravenous AUC last value. […]
The dosing solution was prepared as a cassette to contain all three test articles in the same solutions using a vehicle
consisting of 20% DMSO/10% (DMSO/Cremophor EL 1:1)/70% Milli-Q water.
Individual blood concentrations and pharmacokinetic parameters are shown in Table H through Table J. All data are
expressed as ng/mL of the free drug. Samples that were below the limit of quantification were not used in the
calculation of averages. Concentration versus time data are plotted in Fig D through Fig F.
Table H. Individual blood concentrations (ng/mL) and PK parameters for C16 after IV administration in male CD-1 mice at 1 mg/kg.
t (h) 0 (pre-dose) BLOQ BLOQ BLOQ
(1 picture or pasted object on this page, not shown here)

[1] = mouse blood, IP 10 mg/kg, individual animals 4-6, 10 mg/kg
[2] = mouse blood, IV 1 mg/kg, individual animals 1-3, 1 mg/kg
[3] = mouse blood, PO 10 mg/kg, individual animals 7-9, 10 mg/kg
[4] = whole blood, male CD-1 mouse, IP 10 mg/kg, average

SMILES: COc1cc(C(=O)/C=C/c2ccc(F)cc2)cc(OC)c1OC [C16, 4-fluoro-3’,4’,5’-trimethoxychalcone]
- Tmax (male, CD-1, whole blood, mouse blood, PO 10 mg/kg, individual animals 7-9): 15 min
- AUClast [1]: 127 ng·h/mL and 101 ng·h/mL
- AUC∞ [1]: 134 ng·h/mL and 106 ng·h/mL
- Bioavailability [1]: 63.7% and 50.6%
- Dose-normalized AUClast [1]: 9.92 kg·ng·h/mL/mg and 12.7 kg·ng·h/mL/mg and 10.1 kg·ng·h/mL/mg
- Dose-normalized AUC∞ [1]: 10.1 kg·ng·h/mL/mg and 13.4 kg·ng·h/mL/mg and 10.6 kg·ng·h/mL/mg
- MRTlast [1]: 57 min and 55 min
- cmax [1]: 106 ng/mL and 125 ng/mL
- t1/2 [1]: 51.7 min and 54.1 min
- AUClast [2]: 22.2 ng·h/mL and 17.5 ng·h/mL
- AUC∞ [2]: 24.7 ng·h/mL and 19.6 ng·h/mL
- CL [2]: 673 mL/min/kg and 850 mL/min/kg
- MRTlast [2]: 23.9 min and 28.6 min
- Vss [2]: 27.2 L/kg and 37.7 L/kg
- c0 [2]: 75.8 ng/mL and 103 ng/mL and 49.1 ng/mL
- t1/2 [2]: 46.8 min and 38.2 min
- AUClast [3]: 15.1 ng·h/mL and 24.5 ng·h/mL
- Bioavailability [3]: 7.56% and 12.3%
- Dose-normalized AUClast [3]: 2.32 kg·ng·h/mL/mg and 1.51 kg·ng·h/mL/mg and 2.45 kg·ng·h/mL/mg
- MRTlast [3]: 100 min and 103 min and 46 min
- cmax [3]: 8.76 ng/mL and 17.8 ng/mL and 10.9 ng/mL
- Adverse reactions (mouse, 1 mg/kg IV, 10 mg/kg IP or PO, cassette): No adverse reactions were observed
- Individual blood concentration (mouse, IP 10 mg/kg, 0.083 h, animals 4-6, 10 mg/kg): 28.2 ng/mL and 68.6 ng/mL and 64.5 ng/mL
- Individual blood concentration (mouse, IP 10 mg/kg, 0.25 h, animals 4-6, 10 mg/kg): 106 ng/mL and 125 ng/mL
- Individual blood concentration (mouse, IP 10 mg/kg, 0.50 h, animals 4-6, 10 mg/kg): 94.4 ng/mL and 56.3 ng/mL
- Individual blood concentration (mouse, IP 10 mg/kg, 1.0 h, animals 4-6, 10 mg/kg): 48.0 ng/mL and 32.1 ng/mL
- Individual blood concentration (mouse, IP 10 mg/kg, 2.0 h, animals 4-6, 10 mg/kg): 13.3 ng/mL and 12.1 ng/mL
- Individual blood concentration (mouse, IP 10 mg/kg, 4.0 h, animals 4-6, 10 mg/kg): 1.79 ng/mL and 5.29 ng/mL and 3.62 ng/mL
- Individual blood concentration (mouse, IP 10 mg/kg, 8.0 h, animals 4-6): BLOQ (BLOQ: Below the limit of quantitation (1 ng/mL))
- Individual blood concentration (mouse, IV 1 mg/kg, 0.083 h, animals 1-3, 1 mg/kg): 54.4 ng/mL and 33.4 ng/mL
- Individual blood concentration (mouse, IV 1 mg/kg, 0.25 h, animals 1-3, 1 mg/kg): 15.2 ng/mL and 15.4 ng/mL
- Individual blood concentration (mouse, IV 1 mg/kg, 0.50 h, animals 1-3, 1 mg/kg): 8.57 ng/mL and 10.9 ng/mL
- Individual blood concentration (mouse, IV 1 mg/kg, 1.0 h, animals 1-3, 1 mg/kg): 4.93 ng/mL and 3.76 ng/mL
- Individual blood concentration (mouse, IV 1 mg/kg, 2.0 h, animals 1-3, 1 mg/kg): 2.21 ng/mL and 2.30 ng/mL
- Individual blood concentration (mouse, IV 1 mg/kg, 4.0 h, animals 1-3): BLOQ (BLOQ: Below the limit of quantitation (1 ng/mL))
- Individual blood concentration (mouse, IV 1 mg/kg, 8.0 h, animals 1-3): BLOQ (BLOQ: Below the limit of quantitation (1 ng/mL))
- Individual blood concentration (mouse, PO 10 mg/kg, 0.25 h, animals 7-9, 10 mg/kg): 8.76 ng/mL and 17.8 ng/mL and 10.9 ng/mL
- Individual blood concentration (mouse, PO 10 mg/kg, 0.50 h, animals 7-9, 10 mg/kg): 7.95 ng/mL and 12.4 ng/mL and 5.89 ng/mL
- Individual blood concentration (mouse, PO 10 mg/kg, 1.0 h, animals 7-9, 10 mg/kg): 7.01 ng/mL and 5.15 ng/mL and 3.45 ng/mL
- Individual blood concentration (mouse, PO 10 mg/kg, 2.0 h, animals 7-9, 10 mg/kg): 6.19 ng/mL and 4.28 ng/mL and 10.5 ng/mL
- Individual blood concentration (mouse, PO 10 mg/kg, 4.0 h, animals 7-9, 10 mg/kg): 3.44 ng/mL and BLOQ (BLOQ: Below the limit of quantitation (1 ng/mL)) and 1.26 ng/mL
- Individual blood concentration (mouse, PO 10 mg/kg, 8.0 h, animals 7-9): BLOQ (BLOQ: Below the limit of quantitation (1 ng/mL))
- Dose-normalized AUClast [4]: 10.9 kg·ng·h/mL/mg
- Dose-normalized AUC∞ [4]: 11.4 kg·ng·h/mL/mg
- Dose-normalized AUClast (whole blood, male CD-1 mouse, PO 10 mg/kg, average): 2.09 kg·ng·h/mL/mg
